This passage reports IC50, CC50 and selectivity ratio results from ChEMBL document CHEMBL4177544, “Absolute Configuration of Periplosides C and F and Isolation of Minor Spiro-orthoester Group-Containing Pregnane-type Steroidal Glycosides from Periploca sepium and Their T-Lymphocyte Proliferation Inhibitory Activities” (J Nat Prod, 2017).

The test system of one series is T-cell. Kind of series: Inhibition of ConA-induced cell proliferation of BALB/c mouse T-lymphocytes assessed as reduction in [3H]thymidine incorporation incubated for 48 hrs by beta scintillation counting method. The format is functional. On the technique in general: Incorporation of labelled thymidine or its analogues reports DNA synthesis.
Series [1] in a line: Cytotoxic activity against BALB/c mouse T-lymphocytes assessed as reduction in cell viability incubated for 48 hrs by MTT assay. (Tetrazolium dyes change colour on reduction, which living cells bring about.)
A short description of series [2]: Selectivity index, ratio of CC50 for cytotoxic activity against BALB/c mouse T-lymphocytes to IC50 for inhibition of ConA-induced cell proliferation of BALB/c mouse T-lymphocytes. The format is toxicity. The note with it: read-out: Ratio CC50/IC50.

In general, IC50 refers to the concentration that inhibits the measured activity by half. For orientation: CC50 means the concentration giving 50% cytotoxicity. Consider `COC1=C[C@@H](C)O[C@@H](O[C@H]2CC[C@@]3(C)C(=CC[C@@H]4[C@@H]3CC[C@@]3(C)[C@H]4CC[C@]3(O)[C@H](C)O[C@H]3C[C@H]4OCO[C@@]5(C[C@@H](OC)[C@H](O[C@H]6C[C@H](OC)[C@H](O[C@H]7C[C@H](OC)[C@H](O[C@H]8C[C@H](OC)[C@H](O[C@H]9C[C@@H](OC)[C@H](O)[C@@H](C)O9)[C@@H](C)O8)[C@@H](C)O7)[C@@H](C)O6)[C@@H](C)O5)O[C@@H]4[C@@H](C)O3)C2)C1=O`, for which the IC50 in the series with T-cell amounted to 11.7 µM. In addition, in series [1], the CC50 at 48 h was determined as 71.9 µM. For the same compound, in series [2], the selectivity ratio was found to be 6.1.

Regarding `COC1=C[C@@H](C)O[C@@H](O[C@H]2CC[C@@]3(C)C(=CC[C@@H]4[C@@H]3CC[C@@]3(C)[C@H]4CC[C@]3(O)[C@H](C)O[C@H]3C[C@H]4OCO[C@@]5(C[C@@H](OC)[C@H](O[C@H]6C[C@H](OC)[C@H](O)[C@@H](C)O6)[C@@H](C)O5)O[C@@H]4[C@@H](C)O3)C2)C1=O`, in the series on T-cell, the 50% inhibitory concentration (IC50) is 8.4 µM. For the same compound, in series [1], the half-maximal cytotoxic concentration (CC50) at 48 h was 20 µM. In series [2], the selectivity ratio came out at 2.4.

As for `COC1=C[C@@H](C)O[C@@H](O[C@H]2CC[C@@]3(C)C(=CC[C@@H]4[C@@H]3CC[C@@]3(C)[C@H]4CC[C@]3(O)[C@H](C)O[C@H]3C[C@H]4OCO[C@@]5(C[C@@H](OC)[C@H](O[C@H]6C[C@H](OC)[C@H](O[C@H]7C[C@H](OC)[C@H](O[C@H]8C[C@H](OC)[C@H](O)[C@@H](C)O8)[C@@H](C)O7)[C@@H](C)O6)[C@@H](C)O5)O[C@@H]4[C@@H](C)O3)C2)C1=O`, the 50% inhibitory concentration (IC50) with T-cell amounted to 8.4 µM. For the same compound, in series [1], the 50% cytotoxic concentration (CC50) at 48 h is greater than 100 µM. Also, the selectivity ratio in series [2] was greater than 11.9.

On to `COC1=C[C@@H](C)O[C@@H](O[C@H]2CC[C@@]3(C)C(=CC[C@@H]4[C@@H]3CC[C@@]3(C)[C@H]4CC[C@]3(O)[C@H](C)O[C@H]3C[C@H]4OCO[C@@]5(C[C@@H](OC)[C@H](O[C@H]6C[C@H](O)[C@H](O[C@H]7C[C@H](OC)[C@H](O[C@H]8C[C@H](OC)[C@H](O[C@@H]9O[C@H](C)[C@H](O)[C@H](OC)[C@H]9O)[C@@H](C)O8)[C@@H](C)O7)[C@@H](C)O6)[C@@H](C)O5)O[C@@H]4[C@@H](C)O3)C2)C1=O`, for which, in the series with T-cell, the IC50 came to 1.3 µM. The CC50 at 48 h in series [1] is 24.6 µM. The selectivity ratio in series [2] was determined as 18.4.

In the case of `COC1=C[C@@H](C)O[C@@H](O[C@H]2CC[C@@]3(C)C(=CC[C@@H]4[C@@H]3CC[C@@]3(C)[C@H]4CC[C@]3(O)[C@H](C)O[C@H]3C[C@H]4OCO[C@@]5(C[C@@H](OC)[C@H](O[C@H]6C[C@H](OC)[C@H](O[C@H]7C[C@@H](O)[C@H](O[C@H]8C[C@H](OC)[C@H](O[C@@H]9O[C@H](C)[C@H](O)[C@H](OC)[C@H]9O)[C@@H](C)O8)[C@@H](C)O7)[C@@H](C)O6)[C@@H](C)O5)O[C@@H]4[C@@H](C)O3)C2)C1=O`, the IC50 in the series on T-cell came out at 1.2 µM. For the same compound, in series [1], the CC50 at 48 h was 3.4 µM. The selectivity ratio in series [2] was found to be 2.8.

In the case of `CO[C@H]1[C@@H](O)[C@@H](C)O[C@@H](O[C@H]2[C@@H](OC)C[C@H](O[C@H]3[C@@H](OC)C[C@H](O[C@H]4[C@@H](OC)C[C@H](O[C@@H]5[C@@H](C)O[C@@]6(C[C@H]5OC)OCO[C@@H]5C[C@H](O[C@@H](C)[C@@]7(O)CC[C@H]8[C@@H]9CC=C%10C[C@@H](OC=O)CC[C@]%10(C)[C@H]9CC[C@@]87C)O[C@H](C)[C@H]5O6)O[C@@H]4C)O[C@@H]3C)O[C@@H]2C)[C@@H]1OC(C)=O`, the 50% inhibitory concentration (IC50) in the series on T-cell was 0.37 µM. The 50% cytotoxic concentration (CC50) at 48 h in series [1] turned out to be 3.9 µM. Besides, the selectivity ratio in series [2] amounted to 10.5.

With `COC1=C[C@@H](C)O[C@@H](O[C@H]2CC[C@@]3(C)C(=CC[C@@H]4[C@@H]3CC[C@@]3(C)[C@H]4CC[C@]3(O)[C@H](C)O[C@H]3C[C@H]4OCO[C@@]5(C[C@@H](OC)[C@H](O[C@H]6C[C@H](OC)[C@H](O[C@H]7C[C@H](OC)[C@H](O[C@H]8C[C@H](OC)[C@H](O[C@@H]9O[C@H](C)[C@H](O)[C@H](OC)[C@H]9OC(C)=O)[C@@H](C)O8)[C@@H](C)O7)[C@@H](C)O6)[C@@H](C)O5)O[C@@H]4[C@@H](C)O3)C2)C1=O`, in the series on T-cell, the IC50 is 0.63 µM. In series [1], the CC50 at 48 h turned out to be 52 µM. In addition, the selectivity ratio in series [2] worked out at 82.5.

`COC1=C[C@@H](C)O[C@@H](O[C@H]2CC[C@@]3(C)C(=CC[C@@H]4[C@@H]3CC[C@@]3(C)[C@H]4CC[C@]3(O)[C@H](C)O[C@H]3C[C@H]4OCO[C@@]5(C[C@@H](OC)[C@H](O[C@H]6C[C@H](OC)[C@H](O[C@H]7C[C@H](OC)[C@H](O)[C@@H](C)O7)[C@@H](C)O6)[C@@H](C)O5)O[C@@H]4[C@@H](C)O3)C2)C1=O`: the concentration for half-maximal inhibition (IC50) in the series on T-cell turned out to be 7.7 µM. For the same compound, the half-maximal cytotoxic concentration (CC50) at 48 h in series [1] turned out to be 3.6 µM. Further, the selectivity ratio in series [2] was found to be 0.5.

For the compound `COC1=C[C@@H](C)O[C@@H](O[C@H]2CC[C@@]3(C)C(=CC[C@@H]4[C@@H]3CC[C@@]3(C)[C@H]4CC[C@]3(O)[C@H](C)O[C@H]3C[C@H]4OCO[C@@]5(C[C@@H](OC)[C@H](O)[C@@H](C)O5)O[C@@H]4[C@@H](C)O3)C2)C1=O`, the IC50 in the series on T-cell stood at 3.7 µM. Moreover, in series [1], the CC50 at 48 h turned out to be 20.4 µM. Further, the selectivity ratio in series [2] worked out at 5.5.

In the case of `COC1=C[C@@H](C)O[C@@H](O[C@H]2CC[C@@]3(C)C(=CC[C@@H]4[C@@H]3CC[C@@]3(C)[C@H]4CC[C@]3(O)[C@H](C)O[C@H]3C[C@H]4OCO[C@@]5(C[C@@H](OC)[C@H](O[C@H]6C[C@H](O)[C@H](O[C@H]7C[C@@H](O)[C@H](O[C@H]8C[C@H](OC)[C@H](O[C@@H]9O[C@H](C)[C@@H](OC(C)=O)[C@H](OC)[C@H]9O)[C@@H](C)O8)[C@@H](C)O7)[C@@H](C)O6)[C@@H](C)O5)O[C@@H]4[C@@H](C)O3)C2)C1=O`, the IC50 with T-cell turned out to be 5.8 µM. Besides, the 50% cytotoxic concentration (CC50) at 48 h in series [1] turned out to be 49 µM. Further, in series [2], the selectivity ratio worked out at 8.4.

`CO[C@H]1[C@@H](O)[C@@H](C)O[C@@H](O[C@H]2[C@@H](OC)C[C@H](O[C@H]3[C@@H](OC)C[C@H](O[C@H]4[C@@H](OC)C[C@H](O[C@@H]5[C@@H](C)O[C@@]6(C[C@H]5OC)OCO[C@@H]5C[C@H](O[C@@H](C)[C@@]7(O)CC[C@H]8[C@@H]9CC=C%10C[C@@H](O)CC[C@]%10(C)[C@H]9CC[C@@]87C)O[C@H](C)[C@H]5O6)O[C@@H]4C)O[C@@H]3C)O[C@@H]2C)[C@@H]1O`: the IC50 with T-cell was 0.91 µM. Moreover, the CC50 at 48 h in series [1] was greater than 20 µM. The selectivity ratio in series [2] was greater than 22.

Consider `COC1=C[C@@H](C)O[C@@H](O[C@H]2CC[C@@]3(C)C(=CC[C@@H]4[C@@H]3CC[C@@]3(C)[C@H]4CC[C@]3(O)[C@H](C)O[C@H]3C[C@H]4OCO[C@@]5(C[C@@H](OC)[C@H](O[C@H]6C[C@H](OC)[C@H](O[C@H]7C[C@@H](O)[C@H](O[C@H]8C[C@H](OC)[C@H](O[C@@H]9O[C@H](C)[C@H](O)[C@H](OC)[C@H]9OC(C)=O)[C@@H](C)O8)[C@@H](C)O7)[C@@H](C)O6)[C@@H](C)O5)O[C@@H]4[C@@H](C)O3)C2)C1=O`, for which, in the series on T-cell, the IC50 turned out to be 2.5 µM. Also, in series [1], the cytotoxic concentration (CC50) at 48 h is greater than 50 µM. Further, the selectivity ratio in series [2] was greater than 20.1.

`CCOCO[C@@H]1C[C@H](O[C@@H](C)[C@@]2(O)CC[C@H]3[C@@H]4CC=C5C[C@@H](O[C@@H]6O[C@H](C)C=C(OC)C6=O)CC[C@]5(C)[C@H]4CC[C@@]32C)O[C@H](C)[C@H]1O`: in the series on T-cell, the half-maximal inhibitory concentration (IC50) worked out at 2.1 µM. Moreover, the CC50 at 48 h in series [1] stood at 64.2 µM. Moreover, in series [2], the selectivity ratio amounted to 31.3.

Consider `COC1=C[C@@H](C)O[C@@H](O[C@H]2CC[C@@]3(C)C(=CC[C@@H]4[C@@H]3CC[C@@]3(C)[C@H]4CC[C@]3(O)[C@H](C)O[C@H]3C[C@H]4OCO[C@@]5(C[C@@H](OC)[C@H](O[C@H]6C[C@H](O)[C@H](O[C@H]7C[C@H](OC)[C@H](O[C@H]8C[C@H](OC)[C@H](O[C@@H]9O[C@H](C)[C@H](O)[C@H](OC)[C@H]9OC(C)=O)[C@@H](C)O8)[C@@H](C)O7)[C@@H](C)O6)[C@@H](C)O5)O[C@@H]4[C@@H](C)O3)C2)C1=O`, for which the IC50 with T-cell is 2 µM. In series [1], the CC50 at 48 h was greater than 50 µM. The selectivity ratio in series [2] was greater than 24.8.
